Earlier results, collected in US20040054001A1, “Fumaric acid derivatives as nf-kappab inhibitors” (priority 2001, published 2004).

Tested on: Ehrlich ascites tumour
Conditions: mice; cited from earlier work

Structure (SMILES): O=C(O)/C=C/C(=O)O [fumaric acid]
- growth of the Ehrlich ascites tumour: inhibits
